The values that follow come from article PMC8158265, “Inhibition of catechol-O-methyltransferase by natural pentacyclic triterpenes: structure–activity relationships and kinetic mechanism” (Journal of Enzyme Inhibition and Medicinal Chemistry, 2021).

Usually Vmax stands for the rate approached at saturating substrate. For orientation: Ki means a dissociation constant, usually derived from enzyme kinetics or from competition with a known ligand.

Data set [1] concerns the target T1, recombinant human S-COMT (Homo sapiens, UniProt P21964).
T1 construct: made in house
T1 sequence (P21964 1-221 isoform P21964-2): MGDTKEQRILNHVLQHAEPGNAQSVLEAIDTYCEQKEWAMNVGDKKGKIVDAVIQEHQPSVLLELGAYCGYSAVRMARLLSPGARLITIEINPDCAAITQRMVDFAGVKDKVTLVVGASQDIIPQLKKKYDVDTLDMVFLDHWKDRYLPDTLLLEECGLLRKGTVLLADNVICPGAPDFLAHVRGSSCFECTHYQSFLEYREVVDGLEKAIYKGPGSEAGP
The data set is described as follows: COMT activity inhibition assay (enzymatic activity based fluorescence assay, 3-BTD substrate). The class given is biochemical.

Data set [2] deals with mitochondrial membrane potential of LO-2 cells. As to the kind of experiment: Mitochondrial membrane potential assay (JC-10, high-content imaging). As to conditions: 24 h. In kind it is cell-based, human. The method, then:
The cells were cultured as described in the Section 2.3. […] To assess the mitochondria membrane potential, JC-10 (5 μg/mL) was incubated with the cells for 30 min, and Hochest (10 μg/mL) was used to stain nuclei. After removal of culture medium and rinsing three times with PBS, cell imaging and quantitative analysis were performed by high-content imaging analysis (Molecular Devices® ImageXpress Micro 4, the USA).

A further data set relates to LO-2 cells. The data set is described as follows: Cytotoxicity assay (CCK8). In kind it is cell-based, human. To be noted: for IC50: Homo sapiens; for cell survival: up to 100 μM. The method, then: The normal human liver-derived cell line LO-2 were grown in DMEM culture medium supplemented with 10% FBS, penicillin (100 U/mL) and streptomycin ([…]). After culturing to 80% confluence, cells were digested and exactly 100 µL of cell suspension with a cell concentration of 10^4 cells/well was seeded in 96-well plates and incubated in a 5% CO2 humidified atmosphere at 37 °C for 12 h. Then the cells were incubated with 100 μL tested compounds of varying concentrations from 0.25 to 100 μM prepared in FBS-free culture medium for 24 h. Subsequently, CCK-8 was diluted 1:10 with DMEM culture and them was added into the adherent cells and incubated in 37 °C for 2 h. The absorbance at 450 nm was measured by using the multi-mode microplate reader. Cell viability can be calculated by A/A0 × 100% (A and A0 are the absorbance of experimental group and control group, respectively).

For data set [3], the target named is T1, recombinant human S-COMT. The data set is described as follows: Inhibition kinetics of human S-COMT catalysed O-methylation of 3-BTD. The class given is biochemical. As to conditions: for Vmax: 200 μM SAM; for Inhibition type: with respect to 3-BTD (catechol site); for α: global fit of mixed inhibition model.
[4] abbreviates: 2.0 μg/mL human S-COMT, 2.0 μM 3-BTD as substrate, 200 μM SAM, mean ± SE, read-out: IC50.
Setting [5] is: 2.0 μg/mL human S-COMT, 2.0 μM 3-BTD as substrate, 200 μM SAM, mean ± SE.
[6] abbreviates: L02, LO-2 cells, 24 h, CCK8, read-out: concentration that led to a 50% decrease of cell viability.
[7] abbreviates: apparent Vmax for 3-BTD with 2.5 μM inhibitor.
[8] abbreviates: apparent Vmax for 3-BTD with 5.0 μM inhibitor.
[9] abbreviates: apparent Vmax for 3-BTD with 7.5 μM inhibitor.

Like-named read-outs stand apart in the source and are kept apart here.

For the molecule `Cc1c(O)c(O)cc2c1CC=C1C2(C)CCC2(C)C3CC(C)(C(=O)O)CCC3(C)CCC12C` (stereo not shown) [Compound 19, Hydrocelastrol], at recombinant human S-COMT [1], the IC50 was 12.6 ± 0.73 µM.
Regarding `O=c1c(O)c(-c2ccc(O)c(O)c2)oc2cc(O)cc(O)c12` [Quercetin, reference compound], the IC50 on recombinant human S-COMT [1] was 3.23 ± 0.11 µM.
Take `C[C@H]1[C@H](C)CC[C@]2(C(=O)O)CC[C@]3(C)C(=CC[C@@H]4[C@@]5(C)CC[C@H](O)C(C)(C)[C@@H]5CC[C@]43C)[C@H]12` [Compound 7, Ursolic acid]: the IC50 on recombinant human S-COMT [1] (setting [4]) stood at 15.1 ± 1.35 µM. In addition, the “fold lower inhibitory potency than oleanolic acid (1)” value at recombinant human S-COMT [1] (ratio of IC50 values) was roughly 3 fold.
On to `CC1(C)CC[C@]2(C(=O)O)CC[C@]3(C)C(=CC[C@@H]4[C@@]5(C)CC[C@H](O)[C@@](C)(CO)[C@@H]5CC[C@]43C)[C@@H]2C1` [Compound 2, Hederagenin], for which the IC50 on recombinant human S-COMT [1] (setting [4]) was 8.37 ± 0.46 µM.
The same measure, in the same setting: the value for `C=C(C)[C@@H]1CC[C@]2(C)CC[C@]3(C)[C@H](CC[C@@H]4[C@@]5(C)CC[C@H](O)C(C)(C)[C@@H]5CC[C@]43C)[C@@H]12` [Compound 12, Lupeol] was 7.93 ± 0.47 µM; that for `C=C(C)[C@@H]1CC[C@]2(C(=O)O)CC[C@]3(C)[C@H](CC[C@@H]4[C@@]5(C)CC[C@H](O)[C@@](C)(CO)[C@@H]5CC[C@]43C)[C@@H]12` [Compound 16, 23-Hydroxybetulinic acid] was 31.4 ± 2.42 µM.
On the same count and under the same terms, under `C[C@H]1[C@H](C)CC[C@]2(C)CC[C@]3(C)C(=CC[C@@H]4[C@@]5(C)CC[C@@H](O)[C@](C)(C(=O)O)[C@@H]5CC[C@]43C)[C@H]12` [Compound 9, β-Boswellic acid] stands 14.2 ± 0.87 µM.
As for `C[C@H]1C(=O)CC[C@@H]2[C@]1(C)CC[C@H]1[C@@]2(C)CC[C@@]2(C)[C@@H]3CC(C)(C)CC[C@]3(C)CC[C@]12C` [Compound 20, Friedelin], at recombinant human S-COMT [1] (setting [5]), the IC50 result was “N.E”.
With `C[C@H]1[C@H](C)CC[C@]2(C(=O)O)CC[C@]3(C)C(=CC[C@@H]4[C@@]5(C)C[C@@H](O)[C@H](O)[C@@](C)(CO)[C@@H]5CC[C@]43C)[C@H]12` [Compound 8, Asiatic acid], the IC50 on recombinant human S-COMT [1] worked out at 43.1 ± 5.92 µM.
As for `CC1(C)CC[C@]2(C(=O)O)CC[C@]3(C)C(=CC[C@@H]4[C@@]5(C)CC[C@H](O)C(C)(C)[C@@H]5CC[C@]43C)[C@@H]2C1` [Compound 1, Oleanic acid], in data set [2] (at 50 μM), the “effect on MMP” value is reported as “did not display a decrease of MMP”. In the data set on LO-2 cells (setting [6]), the IC50 was greater than 100 µM. Further, the cell survival in the data set on LO-2 cells (LO-2 cells, CCK8) is given as 95%. For the same molecule, the Vmax at recombinant human S-COMT [3] (setting [7]) is reported as 8.45 ± 0.29 nmol/min/mg; at recombinant human S-COMT [3] (setting [8]) it was 4.56 ± 0.084 nmol/min/mg; on recombinant human S-COMT [3] (setting [9]), 2.20 ± 0.030 nmol/min/mg. Also, the Inhibition type entry at recombinant human S-COMT [3] was “Mixed”.
Consider `C=C(C)[C@@H]1CC[C@]2(C=O)CC[C@]3(C)[C@H](CC[C@@H]4[C@@]5(C)CC[C@H](O)C(C)(C)[C@@H]5CC[C@]43C)[C@@H]12` [Compound 14, Betulinic aldehyde], for which the IC50 at recombinant human S-COMT [1] (setting [4]) was 10 ± 0.63 µM.
`CC1=C(O)C(=O)C=C2C1=CC=C1[C@@]2(C)CC[C@@]2(C)[C@@H]3C[C@](C)(C(=O)O)CC[C@]3(C)CC[C@]12C` [Compound 18, Celastrol]: the IC50 on recombinant human S-COMT [1] turned out to be 3.89 ± 0.15 µM; in the data set with LO-2 cells (L02, 24 h, read-out: concentration that led to a 50% decrease of cell viability, LO-2 cells, 24 h, CCK8), 2.4 µM. For the same molecule, the “fold more potent cytotoxicity than tolcapone” value in the data set with LO-2 cells (LO-2 cells, CCK8) amounted to 12 fold. For the same molecule, the Ki on recombinant human S-COMT [3] was determined as 3.5 ± 0.51 µM. Further, the maximum rate (Vmax) came to 7.91 ± 0.16 nmol/min/mg on recombinant human S-COMT [3] (setting [7]), 4.39 ± 0.10 nmol/min/mg at recombinant human S-COMT [3] (setting [8]) and 2.54 ± 0.047 nmol/min/mg on recombinant human S-COMT [3] (setting [9]). The α on recombinant human S-COMT [3] (with respect to 3-BTD) is recorded as 0.20. Moreover, the Inhibition type result on recombinant human S-COMT [3] is recorded as “Mixed”.
In the case of `C=C(C)[C@@H]1CC[C@]2(C(=O)O)CC[C@]3(C)[C@H](CC[C@@H]4[C@@]5(C)CC[C@H](O)C(C)(C)[C@@H]5CC[C@]43C)[C@@H]12` [Compound 11, Betulinic acid], the results for the IC50 on recombinant human S-COMT [1] (setting [4]) and with LO-2 cells (setting [6]) were 5.07 ± 0.087 µM and greater than 100 µM, respectively. The molecule further yielded a cell survival in the data set on LO-2 cells (LO-2 cells, CCK8) of 95%. Also, the figures for the Vmax on recombinant human S-COMT [3] (setting [7]), on recombinant human S-COMT [3] (setting [8]) and on recombinant human S-COMT [3] (setting [9]) were 9.97 ± 0.20 nmol/min/mg, 8.95 ± 0.22 nmol/min/mg and 6.06 ± 0.24 nmol/min/mg, respectively. In addition, on recombinant human S-COMT [3] (with respect to 3-BTD), the α is 0.39. The Ki at recombinant human S-COMT [3] (global fit, with respect to 3-BTD, saturated SAM, read-out: Ki) came out at 5.6 ± 0.33 µM. In addition, the Inhibition type entry at recombinant human S-COMT [3] was “Mixed”.
In the case of `CC1(C)CCC2(C(=O)O)C(O)CC3(C)C(=CCC4C5(C)CC(O)C(O)C(C)(CO)C5CCC43C)C2C1` (stereo not shown) [Compound 4, Polygalacic acid], the IC50 entry on recombinant human S-COMT [1] (setting [5]) is on record as “N.E”.
For the molecule `Cc1ccc(C(=O)c2cc(O)c(O)c([N+](=O)[O-])c2)cc1` [Tolcapone, tolcapone, reference compound], in data set [2] (10 μM), the “reduction in membrane potential” value stood at 50%. In the data set with LO-2 cells (setting [6]), the IC50 fell in the range of 28 to 38 µM.
`CC1(C)[C@@H](O)CC[C@]2(C)[C@H]3C(=O)C=C4[C@@H]5C[C@@](C)(C(=O)O)CC[C@]5(C)CC[C@@]4(C)[C@]3(C)CC[C@@H]12` [Compound 6, Glycyrrhetinic acid]: the IC50 on recombinant human S-COMT [1] (setting [4]) was 115 ± 11.6 µM.
With `CC1(C)CC[C@]2(C(=O)O)CC[C@]3(C)C(=CC[C@@H]4[C@@]5(C)C[C@@H](O)[C@H](O)C(C)(C)[C@@H]5CC[C@]43C)[C@@H]2C1` [Compound 3, Masline acid], at recombinant human S-COMT [1], the IC50 is 10.6 ± 0.96 µM.
`CC1(C)CC[C@]2(C)CC[C@]3(C)C(=CC[C@@H]4[C@@]5(C)CC[C@@H](O)[C@](C)(C(=O)O)[C@@H]5CC[C@]43C)[C@@H]2C1` [Compound 5, α-Boswellic acid]: the IC50 at recombinant human S-COMT [1] (setting [4]) turned out to be 29.2 ± 1.65 µM.
Same read-out and setting: the value for `Oc1cc(O)c2c(c1)O[C@H](c1ccc(O)c(O)c1)[C@H](O)C2` [Epicatechin, reference compound] was 9.57 ± 0.55 µM.
Turning to `C[C@H]1[C@H](C)CC[C@]2(C)CC[C@]3(C)C(=CC(=O)[C@@H]4[C@@]5(C)CC[C@@H](O)[C@](C)(C(=O)O)[C@@H]5CC[C@]43C)[C@H]12` [Compound 10, 11-Keto-β-Boswellic acid], on recombinant human S-COMT [1] (setting [5]), the IC50 entry was “N.E”.
Turning to `C=C(C)[C@@H]1CC[C@]2(C(=O)O)CC[C@]3(C)[C@H](CC[C@@H]4[C@@]5(C)CC[C@@H](O)C(C)(C)[C@@H]5CC[C@]43C)[C@@H]12` [Compound 15, Epibetulinic acid], the “reduction in COMT-inhibitory potential compared to betulinic acid (11)” value at recombinant human S-COMT [1] was 50%. Further, on recombinant human S-COMT [1] (setting [4]), the IC50 turned out to be 9.38 ± 0.37 µM.
`CCN(CC)C(=O)/C(C#N)=C/c1cc(O)c(O)c([N+](=O)[O-])c1` [Entacapone, entacapone, reference compound]: the IC50 in the data set with LO-2 cells (setting [6]) was greater than 100 µM.
Consider `C=C(C)[C@@H]1CC[C@]2(C(=O)O)CC[C@]3(C)[C@H](CC[C@@H]4[C@@]5(C)CCC(=O)C(C)(C)[C@@H]5CC[C@]43C)[C@@H]12` [Compound 17, Betulonic acid], for which the IC50 on recombinant human S-COMT [1] (setting [4]) amounted to 11.1 ± 0.51 µM.
As for `C=C(C)[C@@H]1CC[C@]2(CO)CC[C@]3(C)[C@H](CC[C@@H]4[C@@]5(C)CC[C@H](O)C(C)(C)[C@@H]5CC[C@]43C)[C@@H]12` [Compound 13, Betulin], on recombinant human S-COMT [1], the IC50 was found to be 8.86 ± 0.46 µM.
